Where two headings read alike, the source gives them in different places.
Experiments:
[1] = tested on: MOLT-4 (human acute lymphoblastic leukemia cells); assay: MTT cancer cell growth inhibition; assay type: cell-based; settings: 72 hours incubation
Description: (§1) MTT assay principle is yellow MTT can penetrate membrane into the cell, succinic dehydrogenase of the mitochondria in living cells can make exogenous MTT reduction of insoluble in water of blue-violet acicular formazan for crystallization and deposition in the cell, crystallization can be dissolved dimethyl sulfoxide (DMSO) solution, detected its absorbance at 490 nm/570 nm wavelength by enzyme-linked immunosorbent assay, which can reflect the number of cells.
(§2) Using DMEM+10% FBS culture medium or using 1640+10% FBS culture, respectively.
(§3) Experimental group: 190 μl cell suspension+10 μl different concentrations of drugs (the final concentration is 10^−5˜10^−10 M)
(§4) a) Cells were seeded in 96-well plates with the inoculation of 1500/well, 190 μl/hole, 37° C., 5% of CO2 incubator overnight;
(§5) b) The next day each well was added 10 μl of different drugs. The final concentration of drug was 10^−5˜10^−10 M, three parallel holes; 37° C., 5% CO2 culture incubator for 72 hours incubation;
(§6) c) Per well was added 20 μl 5 mg/ml of MTT, 37° C., 5% CO2 culture incubator for 4 hours incubation;
(§7) d) The supernatant was discarded. Each well was added 100 μl of DMSO and oscillation;
(§8) e) 570 nm readings. Calculate cell viability. GI50 calculation based on the results.

[2] = tested on: N-87 (human gastric cancer cells); assay: MTT cancer cell growth inhibition; assay type: cell-based; settings: 72 h, N-87 cells, 72 hours incubation
Description: as §1, §2, §3, §4, §5, §6, §7, §8

HDAC7 = target: T1, HDAC7 (Homo sapiens, UniProt Q8WUI4); assay: HDAC biochemical activity measurement (fluorescent substrate deacetylation); settings: HDAC7 enzyme, 37°, 30 minutes
T1 sequence (Q8WUI4 1-952): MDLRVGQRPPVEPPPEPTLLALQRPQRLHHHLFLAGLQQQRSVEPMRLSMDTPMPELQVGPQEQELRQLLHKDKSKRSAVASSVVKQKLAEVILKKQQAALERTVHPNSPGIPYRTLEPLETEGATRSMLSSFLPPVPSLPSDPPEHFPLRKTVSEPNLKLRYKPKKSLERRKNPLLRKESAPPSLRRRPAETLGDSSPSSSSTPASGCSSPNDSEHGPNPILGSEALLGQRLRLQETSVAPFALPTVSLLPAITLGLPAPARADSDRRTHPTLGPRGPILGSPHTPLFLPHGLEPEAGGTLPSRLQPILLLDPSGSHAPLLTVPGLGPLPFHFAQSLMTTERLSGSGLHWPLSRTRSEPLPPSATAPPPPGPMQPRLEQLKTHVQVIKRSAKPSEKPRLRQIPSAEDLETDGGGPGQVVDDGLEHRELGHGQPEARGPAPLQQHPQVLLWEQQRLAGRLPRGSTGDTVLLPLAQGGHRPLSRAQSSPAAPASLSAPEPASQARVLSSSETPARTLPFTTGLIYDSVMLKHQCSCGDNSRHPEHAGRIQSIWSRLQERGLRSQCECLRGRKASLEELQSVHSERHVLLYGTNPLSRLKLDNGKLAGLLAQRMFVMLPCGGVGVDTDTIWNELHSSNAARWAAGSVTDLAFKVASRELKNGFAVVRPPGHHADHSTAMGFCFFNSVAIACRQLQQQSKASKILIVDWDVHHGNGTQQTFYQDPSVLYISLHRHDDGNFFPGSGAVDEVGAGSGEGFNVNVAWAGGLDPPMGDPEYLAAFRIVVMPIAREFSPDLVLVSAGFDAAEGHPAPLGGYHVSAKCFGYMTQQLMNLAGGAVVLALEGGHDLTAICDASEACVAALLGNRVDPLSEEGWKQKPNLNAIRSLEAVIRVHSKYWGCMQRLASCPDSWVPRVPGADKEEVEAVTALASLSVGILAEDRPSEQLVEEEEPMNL
Description: Measurement principle: The chemical activity of the compound is determined according to the degree of deacetylation inhibition of the HDAC enzyme. […] After the substrate containing an acetylated lysine side chain and HDAC enzyme are labeled with a fluorescent label, the fluorescent substrate is de acetyl. The fluorescent labeled substrate is cleaved by the enzyme, and the fluorescent substance is released, which generates 460 nm emission light under the excitation of 360 nm light.
(§9) Specific steps: HDAC substrate was diluted with reaction buffer to 200M (reaction concentration of 20M), the HDAC enzyme was diluted to the appropriate concentration, then added different concentrations of the test compounds and acted at 37 ? 30 minutes, and then added the same volume of 2-times concentration substrate developing solution (developer), incubated at room temperature for 15 minutes. Finally, the last reading measured with a microplate plate reader, excitation light was 360 nm, the emitted light was 460 nm, data processing software was Prime 4, and the results are shown in Table 1.

[3] = tested on: A549 (human lung cancer cells); assay: MTT cancer cell growth inhibition; assay type: cell-based; settings: 72 hours incubation
Description: as §1, §2, §3, §4, §5, §6, §7, §8

[4] = tested on: BGC-823 (human gastric cancer cells); assay: MTT cancer cell growth inhibition; assay type: cell-based; settings: 72 hours incubation
Description: as §1, §2, §3, §4, §5, §6, §7, §8

[5] = tested on: DU145 (human prostate cancer cells); assay: MTT cancer cell growth inhibition; assay type: cell-based; settings: 72 hours incubation
Description: as §1, §2, §3, §4, §5, §6, §7, §8

[6] = tested on: HT1080 (human fibrosarcoma cells); assay: MTT cancer cell growth inhibition; assay type: cell-based; settings: 72 hours incubation
Description: as §1, §2, §3, §4, §5, §6, §7, §8

[7] = tested on: Hela (human cervical cancer cells); assay: MTT cancer cell growth inhibition; assay type: cell-based; settings: 72 hours incubation
Description: as §1, §2, §3, §4, §5, §6, §7, §8

[8] = tested on: PANC-1 (Pac-1, human pancreatic cancer cells); assay: MTT cancer cell growth inhibition; assay type: cell-based; settings: 72 hours incubation
Description: as §1, §2, §3, §4, §5, §6, §7, §8

[9] = tested on: lncap (prostate cancer cells); assay: MTT cancer cell growth inhibition; assay type: cell-based; settings: 72 hours incubation
Description: as §1, §2, §3, §4, §5, §6, §7, §8

HDAC1 = HDAC1 (Homo sapiens, UniProt Q13547); assay: HDAC biochemical activity measurement (fluorescent substrate deacetylation); settings: HDAC1 enzyme, 37°, 30 minutes
Description: (§10) Measurement principle: The chemical activity of the compound is determined according to the degree of deacetylation inhibition of the HDAC enzyme. This experiment measured the degree of deacetylation related to tumor proliferation and metastasis of HDAC1, HDAC2, HDAC3, HDAC8, HDAC11 five subtypes HDAC enzymes. After the substrate containing an acetylated lysine side chain and HDAC enzyme are labeled with a fluorescent label, the fluorescent substrate is de acetyl. The fluorescent labeled substrate is cleaved by the enzyme, and the fluorescent substance is released, which generates 460 nm emission light under the excitation of 360 nm light.
as §9

HDAC2 = HDAC2 (Homo sapiens, UniProt Q92769); assay: as above; settings: HDAC2 enzyme, 37°, 30 minutes
Description: as §10, §9

HDAC8 = target: T2, HDAC8 (Homo sapiens, UniProt Q9BY41); assay: as above; settings: HDAC8 enzyme, 37°, 30 minutes
T2 sequence (Q9BY41 1-377): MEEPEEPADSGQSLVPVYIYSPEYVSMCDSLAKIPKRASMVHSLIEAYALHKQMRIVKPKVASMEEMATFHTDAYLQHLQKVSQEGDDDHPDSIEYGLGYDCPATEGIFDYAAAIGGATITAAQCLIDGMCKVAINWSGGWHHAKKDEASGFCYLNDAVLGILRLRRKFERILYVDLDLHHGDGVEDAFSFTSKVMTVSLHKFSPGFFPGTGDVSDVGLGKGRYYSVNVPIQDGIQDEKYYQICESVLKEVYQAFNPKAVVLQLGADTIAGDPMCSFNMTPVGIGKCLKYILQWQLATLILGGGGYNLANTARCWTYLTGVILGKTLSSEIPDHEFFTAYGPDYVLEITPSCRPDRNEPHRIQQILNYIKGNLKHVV
Description: as §10, §9

[10] = tested on: MCF-7 (human breast cancer cells); assay: MTT cancer cell growth inhibition; assay type: cell-based; settings: Homo sapiens, MCF7, 72 h, 72 hours incubation, MCF-7 cells
Description: as §1, §2, §3, §4, §5, §6, §7, §8

[11] = tested on: U937 (human leukemia cells); assay: MTT cancer cell growth inhibition; assay type: cell-based; settings: Homo sapiens, U-937, 72 h, 72 hours incubation
Description: as §1, §2, §3, §4, §5, §6, §7, §8

HDAC3 = HDAC3 (Homo sapiens, UniProt O15379); assay: HDAC biochemical activity measurement (fluorescent substrate deacetylation); settings: IC50 (μM) HDAC3, HDAC3 enzyme, 37°, 30 minutes
Description: as §10, §9

HDAC11 = target: T3, HDAC11 (Homo sapiens, UniProt Q96DB2); assay: as above; settings: IC50 (μM) HDAC11, HDAC11 enzyme, 37°, 30 minutes
T3 sequence (Q96DB2 1-347): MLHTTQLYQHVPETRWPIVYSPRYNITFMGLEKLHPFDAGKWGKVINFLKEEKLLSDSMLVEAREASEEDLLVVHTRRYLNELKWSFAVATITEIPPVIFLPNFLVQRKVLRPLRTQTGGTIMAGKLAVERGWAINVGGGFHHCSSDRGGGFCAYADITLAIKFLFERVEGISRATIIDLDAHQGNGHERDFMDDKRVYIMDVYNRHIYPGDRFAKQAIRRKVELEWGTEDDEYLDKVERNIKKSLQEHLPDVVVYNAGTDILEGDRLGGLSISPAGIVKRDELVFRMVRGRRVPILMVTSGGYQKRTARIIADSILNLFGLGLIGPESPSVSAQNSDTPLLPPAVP
Description: as §10, §9

Sequence of HDAC2 (Q92769 whole entry, species assumed): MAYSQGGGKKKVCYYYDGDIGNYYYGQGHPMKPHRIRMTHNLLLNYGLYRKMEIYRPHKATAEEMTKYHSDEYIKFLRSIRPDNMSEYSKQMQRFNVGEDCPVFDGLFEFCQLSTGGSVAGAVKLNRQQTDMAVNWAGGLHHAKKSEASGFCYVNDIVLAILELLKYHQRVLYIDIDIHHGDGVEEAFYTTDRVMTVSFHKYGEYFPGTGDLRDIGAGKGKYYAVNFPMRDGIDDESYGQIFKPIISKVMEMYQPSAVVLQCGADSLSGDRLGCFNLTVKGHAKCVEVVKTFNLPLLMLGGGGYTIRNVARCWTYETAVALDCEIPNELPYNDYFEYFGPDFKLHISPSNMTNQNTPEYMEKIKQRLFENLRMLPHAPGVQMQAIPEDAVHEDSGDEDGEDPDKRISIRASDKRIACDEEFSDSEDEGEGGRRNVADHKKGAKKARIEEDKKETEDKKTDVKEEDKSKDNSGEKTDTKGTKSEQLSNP
Sequence of HDAC1 (Q13547 whole entry, species assumed): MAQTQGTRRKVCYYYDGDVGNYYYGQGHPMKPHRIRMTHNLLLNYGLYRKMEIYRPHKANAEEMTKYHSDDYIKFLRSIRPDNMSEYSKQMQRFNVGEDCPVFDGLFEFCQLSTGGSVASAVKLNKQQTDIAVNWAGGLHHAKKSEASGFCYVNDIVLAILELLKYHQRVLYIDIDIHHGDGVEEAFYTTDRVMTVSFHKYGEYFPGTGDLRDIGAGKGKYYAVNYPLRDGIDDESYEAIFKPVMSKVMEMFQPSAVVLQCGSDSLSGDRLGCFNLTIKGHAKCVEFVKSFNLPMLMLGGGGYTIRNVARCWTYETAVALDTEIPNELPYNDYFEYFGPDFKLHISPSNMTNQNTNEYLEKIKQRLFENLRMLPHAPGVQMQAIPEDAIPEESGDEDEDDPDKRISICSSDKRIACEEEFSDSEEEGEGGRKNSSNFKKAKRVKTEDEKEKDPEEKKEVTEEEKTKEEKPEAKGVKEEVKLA
Sequence of HDAC3 (O15379 whole entry, species assumed): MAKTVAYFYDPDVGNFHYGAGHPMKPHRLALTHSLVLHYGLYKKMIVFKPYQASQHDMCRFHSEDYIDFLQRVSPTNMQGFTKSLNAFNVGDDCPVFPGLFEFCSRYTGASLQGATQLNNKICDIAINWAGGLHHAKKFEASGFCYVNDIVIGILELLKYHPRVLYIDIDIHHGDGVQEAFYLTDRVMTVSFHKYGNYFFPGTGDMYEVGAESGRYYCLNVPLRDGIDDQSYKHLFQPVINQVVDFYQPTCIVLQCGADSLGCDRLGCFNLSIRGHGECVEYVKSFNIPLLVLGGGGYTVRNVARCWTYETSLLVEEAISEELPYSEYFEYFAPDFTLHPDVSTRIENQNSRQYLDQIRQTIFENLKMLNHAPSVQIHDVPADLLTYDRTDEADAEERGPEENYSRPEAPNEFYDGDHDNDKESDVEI
Sequence of HDAC3 (Q9Y618 395-489 partner limits assumed, species assumed): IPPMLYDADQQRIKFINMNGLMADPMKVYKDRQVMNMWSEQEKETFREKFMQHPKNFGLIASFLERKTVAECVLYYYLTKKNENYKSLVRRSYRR

Q: How did the GI50 ([1]; Homo sapiens, MOLT-4, 72 h, drug concentration required for 50% of cell growth inhibition, read-out: GI50 (μM) Molt-) turn out when `C/C=C1\NC(=O)c2cccc(n2)CNC(=O)C[C@@H](/C=C/CCSC(=O)CCCCCCC)OC(=O)[C@H](C(C)C)NC1=O` [Compound 1] was run?
A: 0.005 µM

Q: For `C/C=C1\NC(=O)c2nc(ccc2F)CNC(=O)C[C@@H](/C=C/CCSC(C)=O)OC(=O)[C@H](C(C)C)NC1=O` [Compound 93], which GI50 [2] is on record?
A: 28 nM

Q: With `C/C=C1\NC(=O)c2ccc(F)c(n2)CNC(=O)C[C@@H](/C=C/CCSC(C)=O)OC(=O)[C@H](C(C)C)NC1=O` [Compound 95] as the compound, how does the GI50 [2] read?
A: 23 nM

Q: What does the source list for `C/C=C1\NC(=O)c2nc(F)cc(n2)CNC(=O)C[C@@H](/C=C/CCSC(C)=O)OC(=O)[C@H](C(C)C)NC1=O` [Compound 98]?
A: IC50 (μM) HDAC7 (HDAC7): no activity; GI50 ([3]; drug concentration required for 50% of cell growth inhibition, read-out: GI50 (μM) A549): 0.601 µM; GI50 ([4]; drug concentration required for 50% of cell growth inhibition, read-out: GI50 (μM) BGC8): 0.052 µM; GI50 ([5]; drug concentration required for 50% of cell growth inhibition, read-out: GI50 (μM) Du14): 0.042 µM; GI50 ([6]; drug concentration required for 50% of cell growth inhibition, read-out: GI50 (μM) HT10): 0.083 µM; GI50 ([7]; drug concentration required for 50% of cell growth inhibition, read-out: GI50 (μM) Hela): 0.052 µM; GI50 ([1]; drug concentration required for 50% of cell growth inhibition, read-out: GI50 (μM) Molt-): 0.025 µM; GI50 ([8]; drug concentration required for 50% of cell growth inhibition, read-out: GI50 (μM) PAN): 0.083 µM; GI50 ([9]; drug concentration required for 50% of cell growth inhibition, read-out: GI50 (μM) lncap): 0.025 µM

Q: What does the source list for `C/C=C1\NC(=O)c2cc(SC)cc(n2)CNC(=O)C[C@@H](/C=C/CCSC(=O)CCCC)OC(=O)[C@H](C(C)C)NC1=O` [Compound 157]?
A: IC50 (HDAC1): 0.082 µM; IC50 (HDAC2): 0.019 µM; IC50 (HDAC8): 0.027 µM; GI50 ([3]; Homo sapiens, A549, 72 h, A549 cells, read-out: GI50 A549): 0.025 µM; GI50 ([4]; Homo sapiens, BGC-823, 72 h, BGC-823 cells, read-out: GI50 BGC8): 0.037 µM; GI50 ([5]; Homo sapiens, DU-145, 72 h, DU145 cells, read-out: GI50 Du14): 0.073 µM; GI50 ([6]; Homo sapiens, HT-1080, 72 h, HT1080 cells, read-out: GI50 HT10): 0.095 µM; GI50 ([7]; Homo sapiens, HeLa, 72 h, Hela cells, read-out: GI50 Hela): 0.076 µM; GI50 [10]: 23 nM; GI50 ([1]; Homo sapiens, MOLT-4, 72 h, MOLT-4 cells, read-out: GI50 Molt-): 0.025 µM; GI50 ([8]; Homo sapiens, PANC-1, 72 h, PANC-1 cells, read-out: GI50 PAN): 0.026 µM; GI50 [11]: 24 nM; GI50 ([9]; Homo sapiens, LNCaP, 72 h, lncap cells, read-out: GI50 lncap): 0.051 µM; IC50 (HDAC3): 0.051 µM; IC50 (HDAC11): 0.091 µM

Source: patent US20160280736A1, “CYCLIC PEPTIDE COMPOUND, AND PREPARATION METHOD, PHARMACEUTICAL COMPOSITION AND USE THEREOF” (HANGZHOU GUANYU BIO-MEDICAL CO., LTD., priority 2013, published 2016)
